From PubChem BioAssay AID1963961 (Molecular Pharmacology Branch, DTP, NCI, 2024)

System: K98450-129-R-PDC multicell spheroids, viability
Assay: Anticancer human tumor K98450-129-R-PDC patient-derived colon adenocarcinoma cell line growth inhibition [PI3K]
Settings: for IC50: curve of first compound; for viability, T/C: stronger effect = lower value
Procedure, shortened: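 Multi-cell spheroids combine tumor cells with HUVEC and human MSCs, treated with targeted agents alone or with inavolisib, alpelisib, duvelisib or copanlisib. Concentrations fall in half-log steps from at or near clinical Cmax, or from 10 microM where Cmax is unknown; viability read-out.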

[1] = second compound 0.0316 µM, first compound 0.0316 µM
[2] = second compound 0.0316 µM, first compound 0.1 µM
[3] = second compound 0.0316 µM, first compound 0.316 µM
[4] = second compound 0.0316 µM, first compound 1 µM
[5] = second compound 0.0316 µM, first compound 3.16 µM
[6] = second compound 0.0316 µM, first compound 10 µM
[7] = second compound 0.1 µM, first compound 0.0316 µM
[8] = second compound 0.1 µM, first compound 0.1 µM
[9] = second compound 0.1 µM, first compound 0.316 µM
[10] = second compound 0.1 µM, first compound 1 µM
[11] = second compound 0.1 µM, first compound 3.16 µM
[12] = second compound 0.1 µM, first compound 10 µM
[13] = second compound 0.316 µM, first compound 0.0316 µM
[14] = second compound 0.316 µM, first compound 0.1 µM
[15] = second compound 0.316 µM, first compound 0.316 µM
[16] = second compound 0.316 µM, first compound 1 µM
[17] = second compound 0.316 µM, first compound 3.16 µM
[18] = second compound 0.316 µM, first compound 10 µM
[19] = second compound 1 µM, first compound 0.0316 µM
[20] = second compound 1 µM, first compound 0.1 µM
[21] = second compound 1 µM, first compound 0.316 µM
[22] = second compound 1 µM, first compound 1 µM
[23] = second compound 1 µM, first compound 3.16 µM
[24] = second compound 1 µM, first compound 10 µM
[25] = second compound 3.16 µM, first compound 0.0316 µM
[26] = second compound 3.16 µM, first compound 0.1 µM
[27] = second compound 3.16 µM, first compound 0.316 µM
[28] = second compound 3.16 µM, first compound 1 µM
[29] = second compound 3.16 µM, first compound 3.16 µM
[30] = second compound 3.16 µM, first compound 10 µM
[31] = second compound 10 µM, first compound 0.0316 µM
[32] = second compound 10 µM, first compound 0.1 µM
[33] = second compound 10 µM, first compound 0.316 µM
[34] = second compound 10 µM, first compound 1 µM
[35] = second compound 10 µM, first compound 3.16 µM
[36] = second compound 10 µM, first compound 10 µM
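Also: spheroids exposed to agents for seven days before read-out.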

C#Cc1c(F)ccc2cc(O)cc(-c3ncc4c(N5CC6CCC(C5)N6)nc(OCC56CCCN5CC(F)C6)nc4c3F)c12 (centres undefined) + Cc1nc(NC(=O)N2CCCC2C(N)=O)sc1-c1ccnc(C(C)(C)C(F)(F)F)c1
IC50 (second compound 0.0316 µM): > 10 µM
IC50 (second compound 0.1 µM): > 10 µM
IC50 (second compound 0.316 µM): > 10 µM
IC50 (second compound 1 µM): > 10 µM
IC50 (second compound 3.16 µM): > 10 µM
IC50 (second compound 10 µM): 7.68 µM
viability, T/C [1]: 108%
viability, T/C [2]: 97.4%
viability, T/C [3]: 99.1%
viability, T/C [4]: 95.5%
viability, T/C [5]: 93.7%
viability, T/C [6]: 83.2%
viability, T/C [7]: 122%
viability, T/C [8]: 97%
viability, T/C [9]: 102%
viability, T/C [10]: 88.7%
viability, T/C [11]: 92.9%
viability, T/C [12]: 82.2%
viability, T/C [13]: 93.4%
viability, T/C [14]: 96.2%
viability, T/C [15]: 93.7%
viability, T/C [16]: 83.8%
viability, T/C [17]: 90.2%
viability, T/C [18]: 77.7%
viability, T/C [19]: 89.5%
viability, T/C [20]: 92.4%
viability, T/C [21]: 89%
viability, T/C [22]: 85%
viability, T/C [23]: 87.8%
viability, T/C [24]: 76.5%
viability, T/C [25]: 74.3%
viability, T/C [26]: 78.9%
viability, T/C [27]: 87.3%
viability, T/C [28]: 75.3%
viability, T/C [29]: 77.4%
viability, T/C [30]: 63.5%
viability, T/C [31]: 75.6%
viability, T/C [32]: 69.2%
viability, T/C [33]: 67.3%
viability, T/C [34]: 63.1%
viability, T/C [35]: 57.6%
viability, T/C [36]: 47.3%

CC1(C)CCC(Nc2ncc(C(F)(F)F)c(-c3c[nH]c4c(P(C)(C)=O)c(C#N)ccc34)n2)CN1 (centres undefined) + Cc1nc(NC(=O)N2CCCC2C(N)=O)sc1-c1ccnc(C(C)(C)C(F)(F)F)c1
IC50 (second compound 0.0316 µM): > 10 µM
IC50 (second compound 0.1 µM): > 10 µM
IC50 (second compound 0.316 µM): > 10 µM
IC50 (second compound 1 µM): > 10 µM
IC50 (second compound 3.16 µM): > 10 µM
IC50 (second compound 10 µM): > 10 µM
viability, T/C [1]: 118%
viability, T/C [2]: 101%
viability, T/C [3]: 94.7%
viability, T/C [4]: 68.7%
viability, T/C [5]: 69.8%
viability, T/C [6]: 64.6%
viability, T/C [7]: 116%
viability, T/C [8]: 104%
viability, T/C [9]: 87.2%
viability, T/C [10]: 67.4%
viability, T/C [11]: 71.1%
viability, T/C [12]: 67.6%
viability, T/C [13]: 104%
viability, T/C [14]: 102%
viability, T/C [15]: 84.7%
viability, T/C [16]: 69%
viability, T/C [17]: 69.7%
viability, T/C [18]: 66.7%
viability, T/C [19]: 103%
viability, T/C [20]: 96.8%
viability, T/C [21]: 85.8%
viability, T/C [22]: 69.6%
viability, T/C [23]: 70%
viability, T/C [24]: 63.4%
viability, T/C [25]: 88.1%
viability, T/C [26]: 95.5%
viability, T/C [27]: 83%
viability, T/C [28]: 67.8%
viability, T/C [29]: 67.4%
viability, T/C [30]: 56.5%
viability, T/C [31]: 81.6%
viability, T/C [32]: 85.5%
viability, T/C [33]: 70%
viability, T/C [34]: 60.8%
viability, T/C [35]: 62.4%
viability, T/C [36]: 50.5%
